Data published in patent US6998470B1, “Process for large-scale isolation and purification of hypothalamic inhibitory factor” (Bion, Inc., priority 1997, dated 2006).

Legend:
[1] = target: T1, monoclonal antibody 26-10 (Mus musculus, UniProt P01631); assay: 125I competition plate assay using goat-anti-mouse IgG Fab to bind the antibodies; parameters: species or system mice; conditions: read-out: relative affinity (IC50); binding to anti-digoxin mAb 26-10
T1 construct: fused on or other part: Heavy chain of mAb 26-10 (A/J mouse), which forms most of the digoxin/ouabain pocket
Text: (§1) Several available anti-digoxin antibodies were studied to determine relative affinity for ouabain.
Monoclonal antidigoxin antibody 26-10 was obtained from A/J mice immunized with a digoxin-human serum albumin (Dig-HSA) conjugate and spleen cells were fused with the non-secreting murine myeloma Sp2/0 cell line (Mudgett-Hunter, M., et al. J. Immunol., 129:1165–1172 (1982)). Hybridoma cells identified by radioimmunoassay (RIA) as secreting anti-digoxin antibody were cloned and grown in tissue culture and amplified in the ascites form in mice. Digoxin specific hybridoma proteins were purified from ascites by a variety of chromatographic methods, including ion-exchange chromatography on DEAE cellulose and affinity chromatography on Digoxin-BSA-Sepharose or ouabain-amine Sepharose.

[2] = tested on: Na+-K+-ATPase pump activity in human erythrocytes; assay: standard human erythrocyte 86Rb+ uptake assay; assay type: cell-based; conditions: RBC 86Rb+ uptake assay
Text: As defined herein, purified HIF refers to HIF which is substantially free of or isolated from other tissue or fluid protein components and contaminants. In addition, the purified HIF of the present invention has at least 40% activity recovery. Preferably, the purified HIF has about 50–75% activity recovery, more preferably the purified HIF has about 75–90% activity recovery and most preferably, the purified HIF has about 90–95% activity recovery. As defined herein, “activity recovery” of HIF is the activity of HIF as measured indirectly by, for example a biological assay such as specific inhibition of Na^+-K^+-ATPase pump activity in human erythrocytes, or as measured directly, for example, by UV absorbance following HPLC chromatography.
as §1

purified Na, K-ATPase = conditions: Haupert et al. 1984; read-out: affinity constant for binding to purified Na, K-ATPase; cited from earlier work

T1 sequence (P01631 whole entry, the tested form may be a part): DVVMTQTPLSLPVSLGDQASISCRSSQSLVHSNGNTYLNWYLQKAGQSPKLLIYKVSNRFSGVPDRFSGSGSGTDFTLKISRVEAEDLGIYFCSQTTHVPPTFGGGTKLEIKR

C[C@@H]1O[C@@H](O[C@H]2C[C@@H](O)[C@]3(CO)[C@H]4[C@H](O)C[C@]5(C)[C@@H](C6=CC(=O)OC6)CC[C@]5(O)[C@@H]4CC[C@]3(O)C2)[C@H](O)[C@H](O)[C@H]1O [ouabain]
IC50 [1]: 300 nM
amount equal to 1 U (1 U=50% inhibition under standard conditions) [2]: approximately 0.75 pmol
Kd (purified Na, K-ATPase): ~1 nM
